From patent US20240239840A1, “method for the treatment of pain and a medicinal product for administration during pain” (PVP LABS PTE.LTD., priority 2023, published 2024)
Square brackets hold non-standard residues; d marks the D form. Peptide text beside a SMILES is read from it.

How the values were obtained:
δ-receptors = δ-receptors (Homo sapiens, UniProt P41143); assay: opioid receptor specificity of the tetrapeptide; type: binding
From the text: (§1) Two subtypes of μ receptors are recognized: activation of μ1 receptors causes pronounced analgesia, while activation of μ2-receptors leads to respiratory depression, cardiovascular system disturbances such as bradycardia, and suppression of intestinal motility. Therefore, high specificity of the tetrapeptide in question to μ1-opioid receptors ensures the absence of side effects that are typical of most opioid narcotic medications. This tetrapeptide interacts with peripheral and central receptors, although it mostly acts at the spinal level. After the tetrapeptide binds to μ1-receptors, G-protein complex is released, which inhibits the release of neurotransmitters by the cell by reducing the amount of cAMP produced, closing calcium channels and opening potassium channels, which, among other consequences, inhibits the transmission of pain signals in nociceptors. The tetrapeptide activates the antinociceptive system, thereby disrupting interneuronal transmission of pain signals at different levels of the CNS, and changes the intensity of pain perception by acting on the higher brain centres.

μ1-opioid receptor = μ1-opioid receptor (Homo sapiens, UniProt P35372); assay: opioid receptor specificity of the tetrapeptide; type: binding
μ1-opioid receptor, sequence (P35372 whole entry): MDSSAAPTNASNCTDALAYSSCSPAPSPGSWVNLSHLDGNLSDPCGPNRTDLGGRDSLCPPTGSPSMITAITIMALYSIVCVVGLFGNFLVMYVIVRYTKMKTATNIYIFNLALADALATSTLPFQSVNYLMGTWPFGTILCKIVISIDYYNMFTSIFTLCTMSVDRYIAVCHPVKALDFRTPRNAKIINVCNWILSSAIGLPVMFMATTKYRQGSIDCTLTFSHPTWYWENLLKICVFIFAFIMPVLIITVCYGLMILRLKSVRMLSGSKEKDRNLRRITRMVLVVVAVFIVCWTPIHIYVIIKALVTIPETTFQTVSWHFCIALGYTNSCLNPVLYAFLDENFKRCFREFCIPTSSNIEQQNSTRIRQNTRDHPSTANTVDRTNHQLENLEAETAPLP
From the text: as §1

other opioid receptors = assay: opioid receptor specificity of the tetrapeptide; type: binding
From the text: as §1

[1] = clinical trial of pain treatment in the early postoperative period, safety; type: in vivo, human; conditions: groups treated with Promedol
Protocol: (§2) Additional clinical trials focused of the treatment of pain in the early postoperative period after a variety of surgical interventions, including urological, gynaecological and other surgeries.
(§3) If NRS pain intensity score on day two was <4, only paracetamol was administered by IV injection as necessary, and the maximum daily dose was […]. […] Pain was usually brought under control within 1-2 days in the early postoperative period.

[2] = tested on: patients with early postoperative pain; assay: clinical trial of pain treatment in the early postoperative period, efficacy; type: in vivo, human
Protocol: as §2, §3

[3] = phase II clinical trial, safety in cancer patients experiencing pain
Protocol: (§4) Pain intensity was evaluated on a numeric rating scale (NRS) from 0 to 10. […] The patients' physical activity score on the Eastern Cooperative Oncology Group (ECOG) performance status scale was 0 to 3, i.e. they were active and were up and about for over 50% of waking hours (grade 2 on the ECOG scale) or were capable of only limited self-care and confined to bed or chair more than 50% of waking hours (grade 3 on the ECOG scale).
(§5) The study was carried out in two stages. The total duration of the trial for each patient was 20 days or less. […] The number of doses depended on pain intensity as evaluated on the NRS scale for each individual patient.
Comments: 1. […] 2. SAE=serious adverse event.

[4] = phase III clinical trial, safety in patients with cancer pain
[5] = tested on: patients with cancer pain; assay: phase III clinical trial, efficacy in patients with cancer pain; type: in vivo, human
Protocol: Primary efficacy evaluation was performed during the following visits: Visit 1 (day 1 of tetrapeptide treatment), Visit 2 (day 28±2 of tetrapeptide treatment), Visit 3 (day 56±2 of tetrapeptide treatment) and Visit 4 (day 86±2 of tetrapeptide treatment).
Analgesic treatment response maintenance rate by day 28.
Treatment response was considered maintained if all of the following conditions were met: • 1. […] Daily average pain intensity at the end of the 28-day treatment period remains at <50% of the intensity at the start of titration.

[6] = tested on: cancer patients with severe cancer pain; assay: phase II clinical trial, efficacy in cancer patients experiencing pain; type: in vivo, human
Protocol: as §4, §5
The primary efficacy endpoint was the rate of achieving a sufficient analgesic effect throughout the day.

[7] = Promedol 20 mg three times daily
[8] = Promedol 20 mg three times daily on day 1
[9] = investigator-evaluated, Visit 2

δ-receptors, sequence (P41143 whole entry): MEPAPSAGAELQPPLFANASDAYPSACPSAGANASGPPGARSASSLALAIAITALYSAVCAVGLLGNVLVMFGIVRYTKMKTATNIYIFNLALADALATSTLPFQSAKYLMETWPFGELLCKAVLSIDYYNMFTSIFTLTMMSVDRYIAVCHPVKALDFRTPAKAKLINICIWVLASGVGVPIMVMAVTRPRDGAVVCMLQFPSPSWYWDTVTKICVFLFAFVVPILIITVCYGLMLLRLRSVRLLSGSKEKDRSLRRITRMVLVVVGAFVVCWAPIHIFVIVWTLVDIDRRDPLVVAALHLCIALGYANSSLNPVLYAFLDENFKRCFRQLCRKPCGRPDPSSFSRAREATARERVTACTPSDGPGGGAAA

For `N=C(N)NCCC[C@@H](NC(=O)[C@@H](N)Cc1ccc(O)cc1)C(=O)N[C@@H](Cc1ccccc1)C(=O)NCC(N)=O` [H-Tyr-D-Arg-Phe-Gly-NH2, Tyrosyl-D-arginyl-phenylalanyl-glycinamide] (H-Y[dR]FG-NH2), the “interaction with δ-receptors weaker than with μ-opioid receptors” value (δ-receptors) was 3 orders of magnitude, the opioid receptor activity (μ1-opioid receptor) was “highly specific μ1-opioid receptor agonist” and the “interactions with the other receptors” value (other opioid receptors) was “no interactions with the other receptors have been detected”.
With `CCC(=O)OC1(c2ccccc2)CC(C)N(C)CC1C` (centres unmarked) [Promedol] the “patients with AEs” value [1] was 35%, the “daily average NRS pain intensity score” value [2, 7] was 2.16±0.66 and the “mean change in pain intensity” value [2, 7] was 55.44±33.17%. For the same compound, the “proportion of patients with greater than 50% pain relief at 1 hour after the initial dose” value [2, 7] was 50%, the “patients requiring repeat dosing on day 2 who were dosed three times” value [2, 8] was 16.67% and the “patients requiring repeat dosing on day 2 who were dosed twice” value [2, 8] was 83.33%. For the same compound, the “daily average NRS pain intensity score” value ([2]; day 2, Promedol 20 mg three times daily) was 1.41±1.92.
For `CN1CC[C@]23c4c5ccc(O)c4O[C@H]2[C@@H](O)C=C[C@H]3[C@H]1C5` [morphine], the “dyspnoea / difficulty breathing” value ([3]; human, in vivo) was “difficulty breathing was observed”, the “Acute heart failure (SAE), % of the total number of AEs for the group” value ([3]; stage 2) was “(3.7) %” and the “Anaemia, % of the total number of AEs for the group” value ([3]; stage 2) was “(3.7) %”. For the same compound, the “Appetite lost, % of the total number of AEs for the group” value ([3]; stage 2) was “(7.4) %”, the “Asthenia, % of the total number of AEs for the group” value ([3]; stage 2) was “(14.8) %” and the “Constipation, % of the total number of AEs for the group” value ([3]; stage 2) was “(14.8) %”. The “Cough, % of the total number of AEs for the group” value ([3]; stage 2) was “(3.7) %”, the “Dizziness postural, % of the total number of AEs for the group” value ([3]; stage 2) was “(0) %” and the “Dizziness, % of the total number of AEs for the group” value ([3]; stage 2) was “(3.7) %”. The “Dry mouth, % of the total number of AEs for the group” value ([3]; stage 2) was “(3.7) %”, the “Flatulence, % of the total number of AEs for the group” value ([3]; stage 2) was “(3.7) %” and the “Insomnia, % of the total number of AEs for the group” value ([3]; stage 2) was “(3.7) %”. For the same compound, the “Multiple organ dysfunction syndrome (SAE), % of the total number of AEs for the group” value ([3]; stage 2) was “(3.7) %”, the “Nausea, % of the total number of AEs for the group” value ([3]; stage 2) was “(3.7) %” and the “Peripheral oedema, % of the total number of AEs for the group” value ([3]; stage 2) was “(3.7) %”. For the same compound, the “Pulmonary oedema (SAE), % of the total number of AEs for the group” value ([3]; stage 2) was “(3.7) %”, the “Sedation, % of the total number of AEs for the group” value ([3]; stage 2) was “(7.4) %” and the “Shortness of breath, % of the total number of AEs for the group” value ([3]; stage 2) was “(3.7) %”. For the same compound, the “Total, % of the total number of AEs for the group” value ([3]; stage 2) was “(100) %”, the “Vomiting, % of the total number of AEs for the group” value ([3]; stage 2) was “(3.7) %” and the “incidence of AEs” value ([3]; stage 2, 16 patients per group) was 50.0%. For the same compound, the “number of patients in whom AEs were reported” value ([3]; stage 2, 16 patients per group) was 8, the “number of SAEs reported” value ([3]; stage 2, in 1 patient) was 1 and the “prevalence of patients with AEs” value ([4]; Period 1) was 71.19%. The “total number of AEs reported” value ([4]; Period 1) was 119, the AEs mild ([4]; Period 1, % of cases) was 65.55% and the AEs moderate ([4]; Period 1, % of cases) was 33.61%. For the same compound, the AEs severe ([4]; Period 1, % of cases) was 0.84%, the “causality between AEs and therapy: certain” value ([4]; Period 1, % of cases) was 13.44% and the “causality between AEs and therapy: conditional” value ([4]; Period 1, % of cases) was 0.84%. For the same compound, the “causality between AEs and therapy: possible” value ([4]; Period 1, % of cases) was 38.66%, the “causality between AEs and therapy: probable” value ([4]; Period 1, % of cases) was 29.41% and the “causality between AEs and therapy: unclassifiable” value ([4]; Period 1, % of cases) was 0.84%. The “causality between AEs and therapy: unlikely” value ([4]; Period 1, % of cases) was 11.76%, the “causality between AEs and therapy: unrelated” value ([4]; Period 1, % of cases) was 5.04% and the “number of AEs with causality “certain”, “probable” or “possible”” value ([4]; both, human, in vivo, oral) was 97. For the same compound, the “prevalence of patients with reported AEs” value ([4]; comprehensive within-group analysis (44/120 vs 43/59)) was 72.88%, the “average SF-36 mental health score” value ([5]; Visit 0) was 31.42±12.16 and the “average SF-36 physical health score” value ([5]; Visit 0) was 32.22±10.76. The “average SF-36 mental health score” value ([5]; Visit 2) was 31.42±12.16, the “average SF-36 physical health score” value ([5]; Visit 2) was 49.52±11.73 and the non-responders to therapy ([5]; by Visit 2) was “no non-responders”. For the same compound, the “proportion of patients who required a dose increase” value ([5]; by Visit 2) was 6.52%, the “proportion of patients with at least one episode of breakthrough pain” value ([5]; by Visit 2) was 2.17% and the “daily average NRS pain intensity score (Mean±SD)” value ([5]; by group, at Visit 2) was 0.28±0.30. The “proportion of patients with a “good response” to therapy” value [5, 9] was 67.39%, the “proportion of patients with a “satisfactory response” to therapy” value [5, 9] was 0.00% and the “proportion of patients with an “excellent response” to therapy” value [5, 9] was 32.61%. For the same compound, the “average stable daily dose ensuring adequate pain relief” value ([6]; baseline, all Taphalgin dose subgroups) was 20.31 mg, the average starting dose ([6]; before study, patients of the 2 mg Taphalgin subgroup) was 18.33 mg and the “within-group trend of daily average NRS pain intensity scores” value ([6]; stage 2) was “flat”. The “daily average NRS pain intensity score” value ([6]; stage 2, day of dosing 11) was 0.12 ± 0.22, the “daily average NRS pain intensity score” value ([6]; stage 2, day of dosing 12) was 0.30 ± 0.38 and the “daily average NRS pain intensity score” value ([6]; stage 2, day of dosing 13) was 0.24 ± 0.35. The “daily average NRS pain intensity score” value ([6]; stage 2, day of dosing 14) was 0.24 ± 0.35, the “daily average NRS pain intensity score” value ([6]; stage 2, day of dosing 15) was 0.28 ± 0.30 and the “daily average NRS pain intensity score” value ([6]; stage 2, day of dosing 16) was 0.17 ± 0.21. The “daily average NRS pain intensity score” value ([6]; stage 2, day of dosing 17) was 0.17 ± 0.23.
